In patent US6331555A, “Treatment of platelet derived growth factor related disorders such as cancers” (priority 1999, dated 2001):
Where two headings read alike, the source gives them in different places.

Key:
Format in all cases: cell-based
EGFR = biological target: T1, EGFR (Homo sapiens, UniProt P00533); experiment: Receptor tyrosine kinase inhibition, EGFR
T1 construct: expressed in transfected cells; host or cells: NIH3T3 mouse fibroblasts, retroviral vector
Protocol: (§1) For western blotting, cells were plated in 2 mL growth medium into 6-well dishes (500,000 cells per well) and allowed to attach overnight. The medium was replaced with 2 mL MCDB 105 (UCSF Cell Culture Facility) supplemented with 1% FBS. The plates were then incubated overnight at 37° C., ambient CO2. […] After a 7 min incubation at room temperature with ligand, the plates were put on ice and washed three times with 1 mL ice-cold PBS plus 1 mM orthovanadate. Lysis was achieved by pipetting cells in 0.5 mL of buffer containing 50 mM Tris, pH 7.4, 10% glycerol, 1% NP-40, 2 mM EDTA, 1 mM sodium vanadate (Na3 VO4), 10 mM pyrophosphate, 1 mM PMSF, […]. A 300 μL aliquot of each lysate was immediately added to 100 μL 4×Laemmli sample buffer ([…] Tris pH 6.9, 20% glycerol, 7% SDS, 5 mM EDTA, 5% β-mercaptoethanol) containing phosphatase inhibitors, 2 mM Na3 VO4 and 10 mM pyrophosphate. Samples were boiled for 5 min, frozen in dry ice-ethanol, and stored at -80° C. Proteins were resolved by SDS-PAGE (Bio-Rad Miniprotean II) and transferred to nitrocellulose membrane (Schleicher & Schuell) at 120 volts for 1 hr at room temperature in buffer containing 25 mM Tris pH 8.3, 20% methanol, 0.2 M glycine, 0.1% SDS. The integrity of the protein-to-membrane transfer was determined by staining with 1% Ponceau S in 5% acetic acid for 5 min. After destaining in several distilled water rinses, the membrane was soaked overnight in blocking buffer containing 5% milk in Tris-buffered saline, 0.05% Tween 20. Phosphotyresine was detected by incubating the membrane (1 hr at room temperature) with an anti-phosphotyosine antiserum diluted in blocking buffer at 1:3000. For C6 cells, PDGF-β receptor content in the lysates was confirmed in duplicate sample lanes by western blotting using an antibody specific for PDGF-β receptor (UBI). The antibodies were visualized using ECL reagent from Amersham and by exposure to Fuji RX film.
(§2) For ELISA assays, cells were grown to 80-90% confluency in growth medium and seeded in 96-well tissue culture plates in 0.5% serum at 25,000 to 30,000 cells per well. After overnight incubation in 0.5% serum-containingmedium, cells were changed to serum-free medium and treated with test compound for 2 hr in a 5% CO2, 37° C. incubator. Cells were then stimulated with ligand for 5-10 min followed by lysis with HNTG (20 mM Hepes, 150 mM NaCl, 10% glycerol, 5 mM EDTA, 5 mM Na3 VO4 0.2% Triton X-100, and 2 mM NaPyr). Cell lysates (0.5 mg/well in PBS) were transferred to ELISA plates previously coated with receptor-specific antibody and which had been blocked with 5% milk in TBST (50 mM Tris-HCl pH 7.2, 150 mM NaCl and 0.1% Triton X-100) at room temperature for 30 min. Lysates were incubated with shaking for 1 hr at room temperature. The plates were washed with TBST four times and then incubated with polyclonol anti-phosphotyrosine antibody at room temperature for 30 min. Excess anti-phosphotyrosine antibody was removed by rinsing the plate with TBST four times. Goat anti-rabbit IgG antibody was added to the ELISA plate for 30 min at room temperature followed by rinsing with TBST four more times.
(§3) The ability of different compound to inhibit different receptor tyrosine kinases was tested.

PDGFR = experiment: Receptor tyrosine kinase inhibition, PDGFR; conditions: for IC50: W = done in Western assay, read-out: PDGFR IC50 (W)
In short: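 Serum-starved cells treated with test compound for 2 hr at 37° C, then receptor phosphotyrosine measured by ELISA with anti-phosphotyrosine antibody and goat anti-rabbit IgG. Western blots used 7 min ligand stimulation at room temperature, vanadate-containing lysis and anti-phosphotyrosine immunodetection with ECL.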

FLK-1 = biological target: T2, FLK-1 (Mus musculus, UniProt P35918); experiment: Receptor tyrosine kinase inhibition, FLK-1
T2 construct: expressed in transfected cells; host or cells: NIH3T3 mouse fibroblasts, retroviral vector
Protocol: as §1, §2, §3

[1] = W = done in Western assay, read-out: FLK-1 IC50 (W)

T1 sequence (P00533 25-1210): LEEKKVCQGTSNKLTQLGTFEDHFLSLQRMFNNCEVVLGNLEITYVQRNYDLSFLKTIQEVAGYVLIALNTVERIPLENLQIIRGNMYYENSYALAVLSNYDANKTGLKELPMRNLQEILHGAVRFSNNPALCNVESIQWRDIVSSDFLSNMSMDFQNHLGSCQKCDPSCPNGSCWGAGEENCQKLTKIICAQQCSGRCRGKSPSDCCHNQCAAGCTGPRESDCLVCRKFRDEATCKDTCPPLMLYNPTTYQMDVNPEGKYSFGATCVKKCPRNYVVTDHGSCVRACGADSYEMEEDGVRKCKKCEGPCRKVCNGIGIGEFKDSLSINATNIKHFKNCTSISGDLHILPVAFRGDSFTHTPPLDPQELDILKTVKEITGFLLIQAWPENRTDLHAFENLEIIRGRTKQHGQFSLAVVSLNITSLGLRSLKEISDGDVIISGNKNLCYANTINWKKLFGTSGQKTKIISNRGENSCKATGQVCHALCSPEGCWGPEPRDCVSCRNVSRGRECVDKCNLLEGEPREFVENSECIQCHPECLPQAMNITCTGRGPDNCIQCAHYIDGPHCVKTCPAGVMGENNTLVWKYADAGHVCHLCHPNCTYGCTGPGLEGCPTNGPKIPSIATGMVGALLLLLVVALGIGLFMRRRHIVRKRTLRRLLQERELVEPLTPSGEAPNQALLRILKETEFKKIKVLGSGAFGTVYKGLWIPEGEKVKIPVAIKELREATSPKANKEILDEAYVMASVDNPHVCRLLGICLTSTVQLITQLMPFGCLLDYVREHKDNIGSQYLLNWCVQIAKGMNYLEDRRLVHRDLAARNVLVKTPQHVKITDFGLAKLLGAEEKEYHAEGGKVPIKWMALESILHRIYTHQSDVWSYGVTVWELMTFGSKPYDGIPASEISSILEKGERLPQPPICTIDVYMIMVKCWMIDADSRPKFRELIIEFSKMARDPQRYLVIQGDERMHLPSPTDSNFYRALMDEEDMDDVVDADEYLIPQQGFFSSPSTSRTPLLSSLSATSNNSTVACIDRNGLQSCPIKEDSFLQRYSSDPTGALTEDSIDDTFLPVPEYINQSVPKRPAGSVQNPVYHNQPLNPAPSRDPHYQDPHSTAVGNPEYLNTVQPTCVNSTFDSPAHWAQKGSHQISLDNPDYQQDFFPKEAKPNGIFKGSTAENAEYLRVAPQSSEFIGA
T2 sequence (P35918 20-1345): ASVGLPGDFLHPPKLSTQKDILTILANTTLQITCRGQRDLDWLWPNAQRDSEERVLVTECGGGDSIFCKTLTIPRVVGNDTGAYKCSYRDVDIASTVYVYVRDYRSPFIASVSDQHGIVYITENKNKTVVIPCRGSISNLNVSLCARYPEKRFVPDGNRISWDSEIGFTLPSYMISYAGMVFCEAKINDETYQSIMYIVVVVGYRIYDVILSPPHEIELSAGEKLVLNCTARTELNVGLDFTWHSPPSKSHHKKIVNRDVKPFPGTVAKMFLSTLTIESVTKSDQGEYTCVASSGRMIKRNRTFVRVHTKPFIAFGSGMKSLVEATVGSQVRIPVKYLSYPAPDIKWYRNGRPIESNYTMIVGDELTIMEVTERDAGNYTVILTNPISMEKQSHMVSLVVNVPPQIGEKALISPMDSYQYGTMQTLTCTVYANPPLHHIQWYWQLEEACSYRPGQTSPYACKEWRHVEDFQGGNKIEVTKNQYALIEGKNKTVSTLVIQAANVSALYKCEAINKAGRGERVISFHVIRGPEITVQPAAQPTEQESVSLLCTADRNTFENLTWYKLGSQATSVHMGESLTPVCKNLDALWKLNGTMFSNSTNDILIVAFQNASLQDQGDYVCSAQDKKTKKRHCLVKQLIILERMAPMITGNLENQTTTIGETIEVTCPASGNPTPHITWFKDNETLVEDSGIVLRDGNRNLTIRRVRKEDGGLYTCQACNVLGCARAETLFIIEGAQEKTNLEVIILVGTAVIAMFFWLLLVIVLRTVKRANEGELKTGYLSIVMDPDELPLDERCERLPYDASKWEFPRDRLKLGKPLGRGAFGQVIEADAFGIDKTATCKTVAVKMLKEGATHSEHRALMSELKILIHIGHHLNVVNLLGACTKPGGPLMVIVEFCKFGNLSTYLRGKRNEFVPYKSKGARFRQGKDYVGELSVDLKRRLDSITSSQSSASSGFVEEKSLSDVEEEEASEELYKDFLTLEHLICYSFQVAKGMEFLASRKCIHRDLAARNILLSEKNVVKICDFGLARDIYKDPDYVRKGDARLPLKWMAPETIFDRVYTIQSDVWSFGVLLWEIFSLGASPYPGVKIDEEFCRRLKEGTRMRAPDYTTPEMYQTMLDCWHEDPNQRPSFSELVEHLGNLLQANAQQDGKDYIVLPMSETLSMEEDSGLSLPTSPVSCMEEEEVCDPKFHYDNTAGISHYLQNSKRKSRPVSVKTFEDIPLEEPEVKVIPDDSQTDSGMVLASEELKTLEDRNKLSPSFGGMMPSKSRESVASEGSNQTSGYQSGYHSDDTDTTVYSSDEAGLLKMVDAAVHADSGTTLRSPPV

SMILES	EGF receptor phosphorylation (EGFR)	IC50 (PDGFR)	IC50 (FLK-1; read-out: FLK-1 IC50)	PDGF-R phosphorylation (PDGFR)	further results
Cc1oncc1C(=O)Nc1ccc(C(F)(F)F)cc1 [Compound A10, 5-methylisoxazole-4 carboxylic acid-(4-trifluromethyl)-anilide]	little if any effect on EGF-receptor or HER2 phosphorylation	–	–	–	–
N#CC(=Cc1c[nH]c2ccccc12)C(N)=S [Compound D11]	–	8 µM	> 50 µM	–	–
N#CC(=Cc1c[nH]c2ccccc12)c1[nH]nc(N)c1C#N [Compound D14]	do not effect EGF or HER2 phosphorylation	–	> 50 µM	inhibit PDGF-R phosphorylation	IC50 (EGFR; read-out: EGFR ID50): > 100 µM
CN(C)CCCn1cc(C=C(C#N)c2[nH]nc(N)c2C#N)c2ccccc21 [Compound D15]	–	19 µM	> 50 µM	–	–
O=c1c2ccccc2nc(C=Cc2ccc(O)c(O)c2)n1CCO [Compound F10]	–	5 µM	> 50 µM	–	–
Cc1cc2ncc(-c3ccccc3)nc2cc1C [Compound G13]	do not effect EGF or HER2 phosphorylation	–	–	inhibit PDGF-R phosphorylation	IC50 (FLK-1; [1]): > 10 µM
COc1cc2ncc(-c3ccccc3)nc2cc1OC [Compound G14]	do not effect EGF or HER2 phosphorylation	0.8 µM	–	inhibit PDGF-R phosphorylation	IC50 (FLK-1; [1]): > 30 µM
Cc1cc2nc(-c3ccccc3)c(=O)[nH]c2cc1C [Compound G18]	–	10 µM	–	–	IC50 (EGFR; W = done in Western assay, read-out: EGFR ID50 (W)): 500 µM
c1ccc(-c2cnc3cc4ccccc4cc3n2)cc1 [Compound G22]	–	–	–	–	IC50 (EGFR; read-out: EGFR ID50): > 100 µM
